Assay results taken from patent publication US11723908B2, “Quinazoline derivatives as antitumor agents” (SUZHOU ZANRONG PHARMA LIMITED, priority 2018, dated 2023).
pIC50: −log10 of the molar value. Like-named read-outs stand apart in the source and are kept apart here.

What was measured:
HER2 = HER2 (Homo sapiens (Human), UniProt P04626); assay: BT474 cellular assay (HER2 inhibition), phospho-HER2 ELISA; type: cell-based; details: inhibition of phosphor HER2, BT474 cells, 2 hours compound incubation
Experimental: Assay a) BT474 Cellular Assay (HER2 Inhibition) Inhibition of phosphor HER2 was determined by enzyme-linked immunosorbent assay (ELISA) in BT474 cells. BT474 cell line was purchased from [NT] number HTB-20). Human Phospho-ErbB2 ELISA kit was purchased from R&D systems (catalog number DYC1768). Day 1: When the cells reach 70-90% confluence, cells were trypsinized and re-suspended. 5000 cells per well were seeded to a 384-well plate. The plate was incubated at 37° C. with 5% CO2 for 24 hours. ELISA plate was coated with 2 μg/ml capture antibody, which was incubated at 4° C. overnight. Day 2: 25 nl compounds was dosed by Echo from source plate and the 384-well plate was incubated at 37° C. for 2 hours. 30 μl lysis buffer was added to each well and the 384-well plate was shaken softly at 4° C. for 30 minutes. The ELISA plate was washed, blocked and incubated at room temperature for 1-2 hours. The blocked ELISA plate was washed and 20 μl cell lysate was transferred from the 384-well plate to the ELISA plate, which was incubated overnight at 4° C. Day 3: The ELISA plate was washed 3 times. 25 μl/well detection antibody was added (diluted 1 by 2000 in 1% BSA in PBS). After 2 hours of incubation with detection antibody, the ELISA plate was washed 3 times, 25 μl/well TMB substrate was added and incubated for 10-15 minutes before stop solution was added. Absorbance at 450 nm and 570 nm was read within 30 minutes after adding the stop solution. […] The IC50 results are provided in Table 1 for some exemplary compounds.

wt-EGFR = wt-EGFR (Homo sapiens (Human), UniProt P00533); assay: NCI H838 cellular assay (wt-EGFR inhibition), phospho-EGFR ELISA; type: cell-based
Experimental: Assay b) NCI H838 Cellular Assay (Wt-EGFR Inhibition) Inhibition of phosphor wt-EGFR was determined by enzyme-linked immunosorbent assay (ELISA) in NCI H838 cells (ATCC, catalog number CRL-5844). Human Phospho-EGFR DuoSet IC ELISA kit was purchased from R&D systems (catalog number DYC1095). Day 1: When the cells reach 70-90% confluence, cells were trypsinized and re-suspended. 5000 cells per well were seeded to a 384-well plate. The plate was incubated at 37° C. with 5% CO2 for 24 hours. Day 2: Cell culture medium was replaced with 40 μL FBS-Free RPMI1640. After 2 hours of starvation, the 384-well plate was dosed with 40 nL of compounds by Echo from source plate and the 384-well plate was incubated at 37° C. with 5% CO2 for 2 hours. After 2 hours of incubation with compounds, EGF (final concentration at 100 ng/ml) was added to the plate which was incubated at 37° C. with 5% CO2 for 5-10 minutes. Medium was discarded from the plate and 30 μl/well lysis buffer was added to the plate which was incubated at 4° C. for 10 minutes. The cell lysates can be stored at −80° C. in cell plates but must be thawed at room temperature for at least 30 minutes prior to use and continuing the assay. ELISA plate was coated by diluting capture antibody to 4 μg/ml with PBS, and 25 μl/well was dispensed to 384 well UltraCruz® ELISA Plate, which was incubated at 4° C. overnight. Day 3: After the plates were washed three times with 100 μl/well of wash buffer, the plates were blocked by adding 75 μl of Block Buffer to each well and incubated at room temperature for 3 hours. After the plates were washed three times with 100 μl/well of wash buffer, 20 μl cell lysate was transferred to the blocked ELISA plate which was incubated for 2 hours at room temperature. After the plates were washed three times with 100 μl/well of wash buffer, 25 μl/well detection antibody (dilute 1 in 900 in assay buffer) was added the plate which was incubated for 2 hours, protected from light. After washed three times, 25 μl/well TMB substrate was added to the ELISA plate which was incubated for about 10-15 min, protected from light before addition of 25 μl/well stop solution. Absorbance was read at 450 nm and 570 nm within 30 minutes.

[1] = inhibition of phosphor wt-EGFR, NCI H838 cells, EGF 100 ng/ml

Chain of HER2 (P04626 23-1255): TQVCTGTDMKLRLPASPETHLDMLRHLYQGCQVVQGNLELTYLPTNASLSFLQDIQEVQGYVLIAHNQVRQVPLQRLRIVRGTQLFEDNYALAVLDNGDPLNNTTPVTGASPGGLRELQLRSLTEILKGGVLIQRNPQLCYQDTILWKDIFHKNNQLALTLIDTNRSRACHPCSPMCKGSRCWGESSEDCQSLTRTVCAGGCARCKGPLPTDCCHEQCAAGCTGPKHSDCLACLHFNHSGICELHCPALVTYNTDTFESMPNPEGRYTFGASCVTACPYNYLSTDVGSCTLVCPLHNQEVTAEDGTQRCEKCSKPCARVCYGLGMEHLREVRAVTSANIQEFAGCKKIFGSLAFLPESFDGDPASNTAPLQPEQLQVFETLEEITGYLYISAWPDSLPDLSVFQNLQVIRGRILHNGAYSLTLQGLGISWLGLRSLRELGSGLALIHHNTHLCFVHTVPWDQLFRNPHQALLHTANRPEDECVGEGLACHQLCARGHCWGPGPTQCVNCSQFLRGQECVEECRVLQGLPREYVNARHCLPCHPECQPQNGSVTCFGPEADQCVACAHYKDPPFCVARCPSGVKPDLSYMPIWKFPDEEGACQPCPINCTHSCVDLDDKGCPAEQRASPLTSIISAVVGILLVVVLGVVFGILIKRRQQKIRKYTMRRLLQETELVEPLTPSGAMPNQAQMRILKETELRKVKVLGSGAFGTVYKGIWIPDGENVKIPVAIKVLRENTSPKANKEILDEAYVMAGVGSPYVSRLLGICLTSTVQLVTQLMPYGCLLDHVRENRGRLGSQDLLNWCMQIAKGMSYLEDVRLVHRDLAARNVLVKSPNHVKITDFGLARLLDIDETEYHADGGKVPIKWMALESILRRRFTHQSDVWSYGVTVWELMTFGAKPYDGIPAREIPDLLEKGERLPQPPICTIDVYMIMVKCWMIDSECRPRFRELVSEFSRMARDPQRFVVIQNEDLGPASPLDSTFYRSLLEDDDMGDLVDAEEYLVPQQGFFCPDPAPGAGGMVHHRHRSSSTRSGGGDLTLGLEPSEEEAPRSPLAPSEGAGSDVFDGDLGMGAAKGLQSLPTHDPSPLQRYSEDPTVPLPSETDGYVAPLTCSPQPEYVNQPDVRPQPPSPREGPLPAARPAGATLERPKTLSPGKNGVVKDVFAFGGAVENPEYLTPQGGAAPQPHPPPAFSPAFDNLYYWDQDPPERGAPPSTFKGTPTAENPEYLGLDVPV
Chain of wt-EGFR (P00533 25-1210): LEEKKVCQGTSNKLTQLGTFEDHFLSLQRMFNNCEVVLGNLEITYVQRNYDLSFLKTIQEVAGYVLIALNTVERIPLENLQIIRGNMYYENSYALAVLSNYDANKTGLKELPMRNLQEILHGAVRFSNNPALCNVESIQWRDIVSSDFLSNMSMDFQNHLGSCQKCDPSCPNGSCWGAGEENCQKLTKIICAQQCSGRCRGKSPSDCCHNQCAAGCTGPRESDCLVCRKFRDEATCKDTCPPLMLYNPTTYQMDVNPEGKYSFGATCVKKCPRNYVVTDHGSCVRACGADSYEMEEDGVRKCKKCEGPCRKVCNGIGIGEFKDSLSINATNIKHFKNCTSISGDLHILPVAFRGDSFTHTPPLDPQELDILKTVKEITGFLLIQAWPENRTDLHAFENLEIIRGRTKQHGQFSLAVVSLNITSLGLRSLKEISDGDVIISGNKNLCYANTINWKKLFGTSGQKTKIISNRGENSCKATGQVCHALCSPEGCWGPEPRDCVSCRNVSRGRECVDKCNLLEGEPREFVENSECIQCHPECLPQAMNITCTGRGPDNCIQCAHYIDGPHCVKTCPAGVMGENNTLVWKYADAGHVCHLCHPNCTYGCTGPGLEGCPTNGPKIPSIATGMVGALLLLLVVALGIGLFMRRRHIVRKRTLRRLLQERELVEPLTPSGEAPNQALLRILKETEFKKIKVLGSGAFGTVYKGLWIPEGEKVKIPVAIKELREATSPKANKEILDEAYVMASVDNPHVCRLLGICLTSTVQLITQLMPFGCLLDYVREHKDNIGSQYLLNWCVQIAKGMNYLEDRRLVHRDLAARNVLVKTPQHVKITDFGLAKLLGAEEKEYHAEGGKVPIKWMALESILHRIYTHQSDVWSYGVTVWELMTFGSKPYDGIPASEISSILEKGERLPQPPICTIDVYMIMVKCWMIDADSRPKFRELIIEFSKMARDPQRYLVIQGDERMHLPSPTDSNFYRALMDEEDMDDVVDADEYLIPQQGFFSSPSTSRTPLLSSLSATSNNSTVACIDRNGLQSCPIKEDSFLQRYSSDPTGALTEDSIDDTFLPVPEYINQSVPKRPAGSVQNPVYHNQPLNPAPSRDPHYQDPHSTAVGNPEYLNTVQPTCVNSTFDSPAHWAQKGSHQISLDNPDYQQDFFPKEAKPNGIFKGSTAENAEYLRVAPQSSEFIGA

pIC50 (HER2) | pIC50 (wt-EGFR; [1]) | pIC50 (wt-EGFR) | Compound
7.62 | 5.69 |  | COc1ccc2ncnc(Nc3ccc(Oc4cc5ncnn5cn4)c(C)c3)c2c1N1CC2(C[C@H](F)CN2C)C1 (single isomer, unassigned) [Example 43]
8.30 | 6.63 |  | COc1ccc2ncnc(Nc3ccc(Oc4cc5ncnn5cn4)c(C)c3)c2c1N1CC2(C[C@@H](F)CN2C)C1 (single isomer, unassigned) [Example 44]
8.39 | 5.34 |  | COc1ccc2ncnc(Nc3ccc(Oc4cc5ncnn5cn4)c(C)c3)c2c1N1CC2(C[C@H](F)CCN2C)C1 (single isomer, unassigned) [Example 47]
8.17 | 6.44 |  | COc1ccc2ncnc(Nc3ccc(Oc4cc5ncnn5cn4)c(C)c3)c2c1N1CC2(C[C@@H](F)CCN2C)C1 (single isomer, unassigned) [Example 48]
7.51 | 6.48 |  | COc1ccc2ncnc(Nc3ccc(Oc4cc5ncnn5cn4)c(C)c3)c2c1N1CC[C@H](N(C)C)C1 [Example 3, (S)—N-(4-([1,2,4]triazolo[1,5-c]pyrimidin-7-yloxy)-3-methylphenyl)-5-(3-(dimethylamino)pyrrolidin-1-yl)-6-methoxyquinazolin-4-amine]
6.98 | < 5.00 |  | COc1ccc2ncnc(Nc3ccc(Oc4cc5ncnn5cn4)c(C)c3)c2c1N1CCOCC1 [Example 4, N-(4-([1,2,4]triazolo[1,5-c]pyrimidin-7-yloxy)-3-methylphenyl)-6-methoxy-5-morpholinoquinazolin-4-amine]
7.89 | 5.17 |  | CCOc1ccc2ncnc(Nc3ccc(Oc4cc5ncnn5cn4)c(C)c3)c2c1N1CC(N(C)C)C1 [Example 11, N-(4-([1,2,4]triazolo[1,5-c]pyrimidin-7-yloxy)-3-methylphenyl)-5-(3-(dimethylamino)azetidin-1-yl)-6-ethoxyquinazolin-4-amine]
7.80 |  | 5.32 | COc1ccc2ncnc(Nc3ccc(Oc4cc5ncnn5cn4)c(C)c3)c2c1O[C@H]1CCN(C)CC1(F)F [Example 32, (S)—N-(4-([1,2,4]triazolo[1,5-c]pyrimidin-7-yloxy)-3-methylphenyl)-5-((3,3-difluoro-1-methylpiperidin-4-yl)oxy)-6-methoxyquinazolin-4-amine]
7.74 | 5.20 |  | COc1ccc2ncnc(Nc3ccc(Oc4cc5ncnn5cn4)c(Cl)c3)c2c1O[C@H]1CCN(C)CC1(F)F [Example 34, (S)—N-(4-([1,2,4]triazolo[1,5-c]pyrimidin-7-yloxy)-3-chlorophenyl)-5-((3,3-difluoro-1-methylpiperidin-4-yl)oxy)-6-methoxyquinazolin-4-amine]
7.80 |  | 5.89 | [2H]C([2H])([2H])N1CCC(Oc2c(OC)ccc3ncnc(Nc4ccc(Oc5cc6ncnn6cn5)c(C)c4)c23)C(F)(F)C1 (stereo not shown) [Example 35, N-(4-([1,2,4]triazolo[1,5-c]pyrimidin-7-yloxy)-3-methylphenyl)-5-((3,3-difluoro-1-(methyl-d3)piperidin-4-yl)oxy)-6-methoxyquinazolin-4-amine]
7.92 |  | < 5.00 | [2H]C([2H])([2H])Oc1ccc2ncnc(Nc3ccc(Oc4cc5ncnn5cn4)c(C)c3)c2c1O[C@H]1CCN(C)CC1(F)F [Example 37, (S)—N-(4-([1,2,4]triazolo[1,5-c]pyrimidin-7-yloxy)-3-methylphenyl)-5-((3,3-difluoro-1-methylpiperidin-4-yl)oxy)-6-(methoxy-d3)quinazolin-4-amine]
7.43 | < 5.00 |  | COc1ccc2ncnc(Nc3ccc(Oc4cc5ncnn5cn4)c(C)c3)c2c1N1CC2(CN(C)CCO2)C1 [Example 38, N-(4-([1,2,4]triazolo[1,5-c]pyrimidin-7-yloxy)-3-methylphenyl)-6-methoxy-5-(8-methyl-5-oxa-2,8-diazaspiro[3.5]nonan-2-yl)quinazolin-4-amine]
7.03 | < 5.00 |  | COc1ccc2ncnc(Nc3ccc(Oc4cc5ncnn5cn4)c(C)c3)c2c1N1C[C@@H](N(C)C)[C@@H](F)C1 [Example 39, N-(4-([1,2,4]triazolo[1,5-c]pyrimidin-7-yloxy)-3-methylphenyl)-5-((3R,4S)-3-(dimethylamino)-4-fluoropyrrolidin-1-yl)-6-methoxyquinazolin-4-amine]
7.20 | < 5.00 |  | COc1ccc2ncnc(Nc3ccc(Oc4cc5ncnn5cn4)c(C)c3)c2c1N1C[C@@H](F)[C@H](N(C)C)C1 [Example 40, N-(4-([1,2,4]triazolo[1,5-c]pyrimidin-7-yloxy)-3-methylphenyl)-5-((3R,4R)-3-(dimethylamino)-4-fluoropyrrolidin-1-yl)-6-methoxyquinazolin-4-amine]
7.46 | 5.65 |  | COc1ccc2ncnc(Nc3ccc(Oc4cc5ncnn5cn4)c(C)c3)c2c1N1CC2(COCCN2C)C1 [Example 41, N-(4-([1,2,4]triazolo[1,5-c]pyrimidin-7-yloxy)-3-methylphenyl)-6-methoxy-5-(5-methyl-8-oxa-2,5-diazaspiro[3.5]nonan-2-yl)quinazolin-4-amine]
7.24 | < 5.00 |  | COc1ccc2ncnc(Nc3ccc(Oc4cc5ncnn5cn4)c(C)c3)c2c1N1CC2OCCN(C)C2C1 (stereo not shown) [Example 42, N-(4-([1,2,4]triazolo[1,5-c]pyrimidin-7-yloxy)-3-methylphenyl)-6-methoxy-5-(4-methylhexahydropyrrolo[3,4-b][1,4]oxazin-6(2H)-yl)quinazolin-4-amine]
8.60 | 5.18 |  | COc1ccc2ncnc(Nc3ccc(Oc4cc5ncnn5cn4)c(C)c3)c2c1N1C[C@H]2[C@@H]1CCN2C [Example 45, N-(4-([1,2,4]triazolo[1,5-c]pyrimidin-7-yloxy)-3-methylphenyl)-6-methoxy-5-((1S,5S)-2-methyl-2,6-diazabicyclo[3.2.0]heptan-6-yl)quinazolin-4-amine]
7.32 |  |  | Cc1cc(Nc2ncnc3ccc(NC(=O)/C=C/[C@H]4CCCN4C)c(O[C@@H]4CCN(C)CC4(F)F)c23)ccc1Oc1cc2ncnn2cn1 [Example 95, (E)-N-(4-((4-([1,2,4]triazolo[1,5-c]pyrimidin-7-yloxy)-3-methylphenyl)amino)-5-(((R)-3,3-difluoro-1-methylpiperidin-4-yl)oxy)quinazolin-6-yl)-3-((R)-1-methylpyrrolidin-2-yl)acrylamide]
6.77 |  |  | COc1cc2ncnc(Nc3ccc(Oc4cc5ncnn5cn4)c(C)c3)c2c(O[C@@H]2CCN(C)CC2(F)F)c1OC [Example 99, (R)—N-(4-([1,2,4]triazolo[1,5-c]pyrimidin-7-yloxy)-3-methylphenyl)-5-((3,3-difluoro-1-methylpiperidin-4-yl)oxy)-6,7-dimethoxyquinazolin-4-amine]

Compound | pIC50 (HER2) | pIC50 (wt-EGFR; [1]) | pIC50 (wt-EGFR)
COc1ccc2ncnc(Nc3ccc(Oc4cc5ncnn5cn4)c(C)c3)c2c1N1CC(N(C)C)C1 [Example 1, N-(4-([1,2,4]triazolo[1,5-c]pyrimidin-7-yloxy)-3-methylphenyl)-5-(3-(dimethylamino)azetidin-1-yl)-6-methoxyquinazolin-4-amine] | 8.04 | 5.55 | 
Cc1cc(Nc2ncnc3ccc(OCCF)c(N4CC(N(C)C)C4)c23)ccc1Oc1cc2ncnn2cn1 [Example 12, N-(4-([1,2,4]triazolo[1,5-c]pyrimidin-7-yloxy)-3-methylphenyl)-5-(3-(dimethylamino)azetidin-1-yl)-6-(2-fluoroethoxy)quinazolin-4-amine] | 7.59 | 6.74 | 
